In US20100330081A1, “CRIPTO BINDING MOLECULES” (priority 2007, published 2010):

System: CT-3 xenograft tumors (primary human colon tumor)
Assay: CT-3 human colon tumor xenograft, combination with 5-fluorouracil (Example 2)
Assay type: in vivo, mice
Conditions: 5-fluorouracil alone, single dose 30 mg/kg/inj IV Day 15; study terminated Day 34
Source text: Two hundred eighteen (218) female SCID beige (C.B.-17/IcrHsd-Prkcd Lyst Skid Beige) mice (Harlan Sprague Dawley, Madison, Wis.) were started on the study at six to seven weeks of age. Animals were acclimated to the laboratory for at least two days prior to implantation of the tumor. Housing was in ventilated cage racks, and food and water were allowed ad libitum.
CT-3 tumor fragments from a primary human colon tumor were originally obtained from Sera Care, Inc (Oceanside, Calif.) (sent by Peter Chu, Biogen Idec, San Diego). A serially transplanted in-vivo xenograft line was established at Biogen Idec, Inc. and fragments from the third xenograft generation were cryopreserved. […]
On Day −1, the mice were implanted with BioMedics animal ID chips (Model IMI-1000; Seaford, Del.) SC on the left flank. […] Tumor size and body weight measurements were recorded at least twice weekly beginning on […]. When the tumors measured a minimum of 100 mg (Day 15), mice were randomized to treatment and control groups (see Table 2) based on tumor size and excluding tumors with non-progressive growth. […]
Tumor measurements were determined using digital calipers. Body weights and tumor size measurements were recorded on Day 6 and were continued twice weekly until the termination of the study. […]

## O=c1[nH]cc(F)c(=O)[nH]1 [5-fluorouracil]
  inhibition of tumor growth (change in tumor weight): significantly inhibited tumor growth throughout the study
